From ChEMBL document CHEMBL1130766, “Phosphodiesterase inhibitory properties of losartan. Design and synthesis of new lead compounds” (Bioorg Med Chem Lett, 1998)

Tests used:
[1] = target: T1, Phosphodiesterase 4 (Homo sapiens, UniProt P27815+Q08499+Q07343+Q08493); assay: Inhibitory effect in cAMP-specific Phosphodiesterase 4 (PDE 4) isolated from guinea pig ventricular tissue.; format: protein assay, Cavia porcellus; details: target entry is the homologue from another species
[2] = target: T2, Phosphodiesterase 3 (Homo sapiens, UniProt Q14432+Q13370); assay: Inhibitory effect in cGMP-inhibited Phosphodiesterase 3 (PDE 3) isolated from guinea pig ventricular tissue.; format: protein assay, Cavia porcellus; details: target entry is the homologue from another species
[3] = target: T2, Phosphodiesterase 3; assay: Inhibition of guinea pig ventricular Phosphodiesterase 3 (PDE 3) at 200 uM; format: protein assay; details: Cavia porcellus, target entry is the homologue from another species
[4] = target: T1, Phosphodiesterase 4; assay: Inhibition of guinea pig ventricular Phosphodiesterase 4 (PDE 4) at 200 uM; format: protein assay; details: Cavia porcellus, target entry is the homologue from another species
[5] = target: T2, Phosphodiesterase 3; assay: Inhibition of guinea pig ventricular Phosphodiesterase 3 (PDE 3); format: protein assay, Cavia porcellus; details: target entry is the homologue from another species

Compound: CCc1nc(OCc2ccc(-c3ccccc3-c3nn[nH]n3)cc2)c2ccccc2n1
- IC50 [1]: 14 µM
- IC50 [2]: 5.8 µM

Compound: CCCCN(Cc1ccccc1-c1ccccc1)c1nc2c3c(ccc2s1)CCCC3
- IC50 [1]: 42 µM
- inhibition [3]: 15%

Compound: CCCc1nc(SCc2ccc(-c3ccccc3-c3nn[nH]n3)cc2)c2cc(C)ccc2n1
- IC50 [1]: 3.8 µM
- IC50 [2]: 2.4 µM

Compound: CC(C)c1nc(SCc2ccc(-c3ccccc3-c3nn[nH]n3)cc2)c2ccccc2n1
- IC50 [1]: 3.8 µM
- IC50 [2]: 2.4 µM

Compound: CCCCN(Cc1ccccc1-c1ccccc1)c1nc2nc3ccccc3n2s1
- IC50 [1]: 30 µM
- inhibition [3]: 31%

Compound: CCCCc1nc(SCc2ccc(-c3ccccc3-c3nn[nH]n3)cc2)c2ccccc2n1
- IC50 [1]: 2.9 µM
- IC50 [2]: 8 µM

Compound: CCCCc1nc(NCc2ccc(-c3ccccc3-c3nn[nH]n3)cc2)c2ccccc2n1
- IC50 [1]: 7.6 µM
- IC50 [2]: 16 µM

Compound: CCCCN(Cc1ccccc1-n1ncnn1)c1nc2nc3ccccc3n2s1
- inhibition [4]: 44%
- inhibition [3]: 32%

Compound: CCN(Cc1ccc(-c2ccccc2-n2ncnn2)cc1)c1nc2nc3ccccc3n2s1
- IC50 [5]: 125 µM
- IC50 [1]: 74 µM

Compound: CCCCc1nc(Cl)c(CO)n1Cc1ccc(-c2ccccc2-c2nnn[nH]2)cc1 [LOSARTAN]
- IC50 [5]: 13 µM

Compound: CCCc1nc(SCc2ccc(-c3ccccc3-c3nn[nH]n3)cc2)c2cc(C)cc(C)c2n1
- IC50 [1]: 8.6 µM
- IC50 [2]: 11 µM

Compound: CCCCc1nc(OCc2ccc(-c3ccccc3-c3nn[nH]n3)cc2)c2ccccc2n1
- IC50 [1]: 7.9 µM
- IC50 [2]: 5.4 µM

Compound: CCc1nc(SCc2ccc(-c3ccccc3-c3nn[nH]n3)cc2)c2ccccc2n1
- IC50 [1]: 3.3 µM
- IC50 [2]: 7 µM

Compound: CCN(Cc1ccccc1)c1nc2nc3ccccc3n2s1
- IC50 [1]: 32 µM
- inhibition [3]: 12%

Compound: CCCc1nc(SCc2ccc(-c3ccccc3-c3nn[nH]n3)cc2)c2ccccc2n1
- IC50 [1]: 3.8 µM
- IC50 [2]: 6.8 µM

Compound: CCc1nc(NCc2ccc(-c3ccccc3-c3nn[nH]n3)cc2)c2ccccc2n1
- IC50 [1]: 21 µM
- IC50 [2]: 24 µM

Compound: CCN(Cc1ccccc1-n1ncnn1)c1nc2nc3ccccc3n2s1
- IC50 [1]: 107 µM
- inhibition [3]: 15%

Compound: Cc1nc(SCc2ccc(-c3ccccc3-c3nn[nH]n3)cc2)c2ccccc2n1
- IC50 [1]: 15 µM
- IC50 [2]: 4.8 µM

Compound: CCN(Cc1ccccc1-c1ccccc1)c1nc2nc3ccccc3n2s1
- IC50 [1]: 48 µM
- inhibition [3]: 41%

Compound: CCCCN(Cc1ccc(-c2ccccc2-n2ncnn2)cc1)c1nc2nc3ccccc3n2s1
- inhibition [4]: 48%
- inhibition [3]: 50%

Compound: CCCCN(Cc1ccccc1)c1nc2nc3ccccc3n2s1
- IC50 [1]: 90 µM
- inhibition [3]: 0%
